In the NIST ThermoML archive (doi:10.1016/j.jct.2004.08.003):

Experiments:
[1] = xn = mol fraction of the nth substance listed; settings: 101.3 kPa, Liquid
[2] = relative permittivity at various frequencies (dimensionless); xn = mol fraction of the nth substance listed; settings: 101.3 kPa, Liquid, Frequency=1 MHz, HP4284A LCR Meter with HP16452A measuring cell

COCCOCCOCCOC [2,5,8,11-tetraoxadodecane] + CCCCCCCCCCCC
Settings	mass density, [1] [kg/m3]	relative permittivity, [2]
288.15 K, x1 = 0.0983	769.24	–
288.15 K, x1 = 0.0993	–	2.3
288.15 K, x1 = 0.1981	–	2.61
288.15 K, x1 = 0.2007	788.2	–
288.15 K, x1 = 0.2498	–	2.79
288.15 K, x1 = 0.2526	798.35	–
288.15 K, x1 = 0.2974	807.41	–
288.15 K, x1 = 0.3051	–	3.01
288.15 K, x1 = 0.396	–	3.4
288.15 K, x1 = 0.398	828.67	–
288.15 K, x1 = 0.5011	–	3.92
288.15 K, x1 = 0.5097	853.81	–
288.15 K, x1 = 0.5986	875.06	–
288.15 K, x1 = 0.5991	–	4.51
288.15 K, x1 = 0.6981	900.28	–
288.15 K, x1 = 0.7114	–	5.28
288.15 K, x1 = 0.7994	–	5.98
288.15 K, x1 = 0.8012	928.25	–
288.15 K, x1 = 0.8996	–	6.87
288.15 K, x1 = 0.9009	957.48	–
288.15 K, x1 = 0.9504	–	7.37
288.15 K, x1 = 0.951	973.13	–
293.15 K, x1 = 0.0989	765.55	–
293.15 K, x1 = 0.0992	–	2.3
293.15 K, x1 = 0.1969	783.56	–
293.15 K, x1 = 0.2005	–	2.6
293.15 K, x1 = 0.2488	793.6	–
293.15 K, x1 = 0.252	–	2.78
293.15 K, x1 = 0.2988	–	2.95
293.15 K, x1 = 0.3069	805.3	–
293.15 K, x1 = 0.3978	–	3.37
293.15 K, x1 = 0.4006	825.05	–
293.15 K, x1 = 0.5003	–	3.87
293.15 K, x1 = 0.5006	847.38	–
293.15 K, x1 = 0.5981	870.51	–
293.15 K, x1 = 0.6016	–	4.45
293.15 K, x1 = 0.698	–	5.08
293.15 K, x1 = 0.6989	895.89	–
293.15 K, x1 = 0.7963	922.13	–
293.15 K, x1 = 0.7995	–	5.85
293.15 K, x1 = 0.8997	–	6.73
293.15 K, x1 = 0.9032	953.28	–
293.15 K, x1 = 0.9492	–	7.2
293.15 K, x1 = 0.95	967.84	–
298.15 K, x1 = 0.088	–	2.25
298.15 K, x1 = 0.0984	761.73	–
298.15 K, x1 = 0.1995	780.21	–
298.15 K, x1 = 0.2006	–	2.58
298.15 K, x1 = 0.2494	–	2.74
298.15 K, x1 = 0.2511	790.16	–
298.15 K, x1 = 0.3005	800.04	–
298.15 K, x1 = 0.3046	–	2.95
298.15 K, x1 = 0.3988	820.63	–
298.15 K, x1 = 0.4127	–	3.4
298.15 K, x1 = 0.496	–	3.8
298.15 K, x1 = 0.4974	842.53	–
298.15 K, x1 = 0.5972	–	4.35
298.15 K, x1 = 0.598	866.25	–
298.15 K, x1 = 0.6987	–	4.98
298.15 K, x1 = 0.6997	891.79	–
298.15 K, x1 = 0.7954	917.48	–
298.15 K, x1 = 0.8028	–	5.76
298.15 K, x1 = 0.9014	948.24	–
298.15 K, x1 = 0.9022	–	6.61
298.15 K, x1 = 0.9504	–	7.07
298.15 K, x1 = 0.9513	963.73	–
303.15 K, x1 = 0.0987	758.05	–
303.15 K, x1 = 0.099	–	2.26
303.15 K, x1 = 0.1997	–	2.56
303.15 K, x1 = 0.2033	777	–
303.15 K, x1 = 0.2498	785.94	–
303.15 K, x1 = 0.2517	–	2.73
303.15 K, x1 = 0.2994	795.76	2.9
303.15 K, x1 = 0.3949	815.57	–
303.15 K, x1 = 0.3976	–	3.3
303.15 K, x1 = 0.4991	–	3.76
303.15 K, x1 = 0.5002	838.84	–
303.15 K, x1 = 0.5969	–	4.29
303.15 K, x1 = 0.5996	862.24	–
303.15 K, x1 = 0.6979	886.84	–
303.15 K, x1 = 0.699	–	4.94
303.15 K, x1 = 0.7996	914.11	–
303.15 K, x1 = 0.8015	–	5.69
303.15 K, x1 = 0.9015	943.66	–
303.15 K, x1 = 0.9058	–	6.55
303.15 K, x1 = 0.9494	–	6.96
303.15 K, x1 = 0.9509	958.94	–
308.15 K, x1 = 0.0988	–	2.25
308.15 K, x1 = 0.1	754.59	–
308.15 K, x1 = 0.1965	–	2.53
308.15 K, x1 = 0.1987	772.42	–
308.15 K, x1 = 0.2471	–	2.7
308.15 K, x1 = 0.2494	782.08	–
308.15 K, x1 = 0.2992	791.92	–
308.15 K, x1 = 0.307	–	2.91
308.15 K, x1 = 0.3968	812.1	–
308.15 K, x1 = 0.4071	–	3.31
308.15 K, x1 = 0.4983	–	3.73
308.15 K, x1 = 0.5058	836.19	–
308.15 K, x1 = 0.5976	857.76	–
308.15 K, x1 = 0.598	–	4.25
308.15 K, x1 = 0.6938	–	4.83
308.15 K, x1 = 0.6974	882.71	–
308.15 K, x1 = 0.7997	–	5.57
308.15 K, x1 = 0.7998	910.17	–
308.15 K, x1 = 0.9018	–	6.41
308.15 K, x1 = 0.9025	939.96	–
308.15 K, x1 = 0.9501	–	6.86
308.15 K, x1 = 0.9512	955.04	–
318.15 K, x1 = 0.0976	746.77	–
318.15 K, x1 = 0.0989	–	2.23
318.15 K, x1 = 0.1979	764.58	–
318.15 K, x1 = 0.2	–	2.51
318.15 K, x1 = 0.248	773.96	–
318.15 K, x1 = 0.249	–	2.66
318.15 K, x1 = 0.297	–	2.82
318.15 K, x1 = 0.3015	784.34	–
318.15 K, x1 = 0.3929	–	3.18
318.15 K, x1 = 0.4004	804.52	–
318.15 K, x1 = 0.5013	826.47	–
318.15 K, x1 = 0.5026	–	3.66
318.15 K, x1 = 0.6015	–	4.16
318.15 K, x1 = 0.6035	850.21	–
318.15 K, x1 = 0.6959	873.06	–
318.15 K, x1 = 0.7035	–	4.76
318.15 K, x1 = 0.7956	899.51	–
318.15 K, x1 = 0.7989	–	5.4
318.15 K, x1 = 0.9004	–	6.19
318.15 K, x1 = 0.9025	930.16	–
318.15 K, x1 = 0.949	944.39	–
318.15 K, x1 = 0.9505	–	6.62
328.15 K, x1 = 0.0988	–	2.23
328.15 K, x1 = 0.0996	739.48	–
328.15 K, x1 = 0.1986	–	2.49
328.15 K, x1 = 0.208	758.56	–
328.15 K, x1 = 0.2483	–	2.62
328.15 K, x1 = 0.2561	767.51	–
328.15 K, x1 = 0.3036	776.66	–
328.15 K, x1 = 0.3062	–	2.81
328.15 K, x1 = 0.3961	–	3.14
328.15 K, x1 = 0.3988	795.88	–
328.15 K, x1 = 0.4898	815.4	–
328.15 K, x1 = 0.4986	–	3.56
328.15 K, x1 = 0.596	–	4.03
328.15 K, x1 = 0.5972	839.96	–
328.15 K, x1 = 0.6906	862.83	–
328.15 K, x1 = 0.6969	–	4.61
328.15 K, x1 = 0.7914	–	5.22
328.15 K, x1 = 0.8023	892.19	–
328.15 K, x1 = 0.8935	–	5.99
328.15 K, x1 = 0.8988	919.73	–
328.15 K, x1 = 0.9494	–	6.44
328.15 K, x1 = 0.9518	935.78	–
